Measurements reported in article PMC12801355, “Peptide Amphiphiles Hitchhike on Endogenous Biomolecules for Enhanced Cancer Imaging and Therapy” (Advanced Materials (Deerfield Beach, Fla.), 2025).
Where a SMILES comes first, the peptide text is derived from it. The star is where a group is joined. Palmitoyl = CCCCCCCCCCCCCCCC(=O)*

Tests used:
human plasma proteins [1] = molecular target: T1, human plasma proteins (Homo sapiens, UniProt O14791); assay: Mass spectrometry of proteins pulled down with biotinylated SA‐E (SA‐Eb) from human plasma; format: binding
T1 construct: incubated with 50% pooled human plasma at 37 °C for 2 h; from tissue; host or cells: pooled human plasma (50%)
T1 sequence (O14791 28-398): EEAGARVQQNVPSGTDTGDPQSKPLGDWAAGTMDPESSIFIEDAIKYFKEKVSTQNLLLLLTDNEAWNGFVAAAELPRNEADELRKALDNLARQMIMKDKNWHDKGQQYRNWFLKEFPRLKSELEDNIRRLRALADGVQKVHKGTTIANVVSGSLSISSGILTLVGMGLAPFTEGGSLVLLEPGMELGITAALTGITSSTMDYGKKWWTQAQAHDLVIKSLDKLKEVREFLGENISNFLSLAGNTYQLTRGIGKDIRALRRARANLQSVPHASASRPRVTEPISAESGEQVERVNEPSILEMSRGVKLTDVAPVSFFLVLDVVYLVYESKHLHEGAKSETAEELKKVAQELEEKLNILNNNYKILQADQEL
Method: (§1) Samples were prepared for mass spectrometry analysis via a pull‐down of a biotinylated version of the SA‐E probe (SA‐Eb, 100 µM) incubated with 50% pooled human plasma at 37 °C for 2 h. Before incubation with the SA‐Eb‐plasma mixture, magnetic streptavidin‐coated beads (Dynabeads MyOne Streptavidin T1, Invitrogen, 65601) were washed with PBS (10 mM, pH 7.4) then blocked with 1% casein equal to the total initial volume of beads for 15 min at room temperature. After blocking, beads were washed again with PBS. Beads were then combined with SA‐Eb‐plasma solution, 25 µL beads to 200 µL mixture. This mixture was then incubated at room temperature for 30 min. After incubation, the remaining solution was removed, and the beads were washed five times with PBS. Bound SA‐Eb was eluted from beads in 30 µL 0.5% Triton X‐100 solution. Magnetic beads were then removed, and the elution was collected for analysis. For plasma control, the incubation with SA‐Eb step was skipped, and 50% plasma in PBS was incubated with beads and washed and eluted using the same method as the SA‐Eb‐plasma solution. The elution solutions were then analyzed by the Proteomics Shared Resource facility at Oregon Health & Science University (See Supporting Information for details).
(§2) Sample Preparation. Eluted plasma samples were dried down and stored at -80°C. Samples were thawed at room temperature for 10 min, and 75 µL of SDS protein extraction buffer (5% SDS, 50 mM […]; TEAB) was added to each sample. Samples were shaken in a Thermo mixer for 10 minutes at room temperature and centrifuged at 10,000 g for 5 min. Each sample was transferred from a 0.5 mL tube to a 1.5 mL LoBind centrifuge tube. Samples were reduced by adding 3.4 µL of 0.5 M dithiothreitol and incubated at 95 °C for 10 min. Samples were alkylated by the addition of 6.8 µL of 0.5 M iodoacetamide and were incubated at room temperature for 30 min in the dark. Samples were then acidified by the addition of 8.52 µL of 12% phosphoric acid, and 562 µL of SDS protein binding buffer (90% methanol, 100 mM TEAB, pH 7.51). Samples were transferred 165 µL at a time to S-trap micro columns (Protifi, Farmingdale, NY) and inserted into 1.5 mL of polypropylene tubes. Samples were centrifuged at 4,000 g for 3 min between each addition of the sample. S-trap columns were washed 6 times using 150 µL of 90% methanol containing 100 mM of TEAB followed by centrifugation at 4,000g for 3 min between each wash step. S-trap columns containing the bound sample proteins were transferred to 1.5 mL LoBind centrifuge tubes and 40 µL of 80 ng/µL sequencing grade modified trypsin (Pierce TM Trypsin Protease MS-Grade, XG348166) in 50 mM TEAB was added. S-trap columns were loosely capped, and digestion was performed at 37°C overnight in a humidified chamber.
(§3) After completion of digestion, peptides were eluted by sequential addition of 40 µL of TEAB, 40 µL of 0.2% aqueous formic acid, and 40 µl of 50% acetonitrile, 0.2% formic acid, with centrifugation at 4,000 g for 4 min between each addition of elution buffer. The elution fractions were combined and then dried by vacuum centrifugation. Samples were reconstituted by adding 20 µL of 5% formic acid, shaking at 37 °C, and spinning at 15,000 g for 5 min. The supernatant of each sample was transferred to an auto-sample vial.
(§4) Data analysis. Mass spectrometry data from all samples were processed using COMET/PAWS against Uniprot_Human_database. Comet (v. 2016.01, rev. 3)^8 was used to search MS2 Spectra against a January 2023 version of canonical FASTA protein database containing human uniprot sequences, and concatenated sequence-reversed entries to estimate error thresholds and 179 common contaminant sequences and their reversed forms. The database processing was performed using python scripts available at https://github.com/pwilmart/fasta_utilities.git and Comet results were processed using the PAW pipeline2 from https://github.com/pwilmart/PAW_pipeline.git.

human plasma proteins [2] = molecular target: T2, human plasma proteins (Homo sapiens, UniProt P02647); assay: as above; format: binding
T2 construct: incubated with 50% pooled human plasma at 37 °C for 2 h; from tissue; host or cells: pooled human plasma (50%)
Method: as §1, §2, §3, §4

human plasma proteins [3] = molecular target: T3, human plasma proteins (Homo sapiens, UniProt P02654); assay: as above; format: binding
T3 construct: incubated with 50% pooled human plasma at 37 °C for 2 h; from tissue; host or cells: pooled human plasma (50%)
T3 sequence (P02654 27-83): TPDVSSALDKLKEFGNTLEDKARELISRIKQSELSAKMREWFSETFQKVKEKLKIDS
Method: as §1, §2, §3, §4

human plasma proteins [4] = molecular target: T4, human plasma proteins (Homo sapiens, UniProt P08519); assay: as above; format: binding
T4 construct: incubated with 50% pooled human plasma at 37 °C for 2 h; from tissue; host or cells: pooled human plasma (50%)
Method: as §1, §2, §3, §4

TRAMP‐C2 tumors = assay: Tumor accumulation in wild type or SR‐B1‐/‐ tumors; format: in vivo, mouse; conditions: 50 nmol IV, 2 days
Method: For tumor accumulation studies in subcutaneous (HCT‐116, A375, TRAMP‐C2, MC38, LLC1, RG2, PDX cell lines, wild type or SR‐B1 ‐/‐ TRAMP‐C2, and wild type or LDL‐R ‐/‐ HeLa), intradermal (A375), or fat pad (4T1 and MCF‐7) tumors, cells were implanted as described above. When the tumors reached a size around ≈0.3–1 cm, mice were injected intravenously with 100 µL of ICG conjugated PAs (in PBS, 0.5 mM) or free ICG (in PBS, 0.5 mM). After probe injections, mice were imaged using the IVIS Spectrum (PerkinElmer) with excitation and emission wavelengths of 745 and 820 nm, respectively, at the specified time points. Living Image (PerkinElmer) software was used for all analyses. For MMTV mice experiments, mice were injected intravenously weekly with SA‐E (100 µL PBS, 0.5 mM) between 71 and 85 days of age and imaged 2 days later in the IVIS. […] SA‐E was injected intravenously (100 µL PBS, 0.5 mM), 2 days later the intestinal tissue was harvested, washed, and analyzed in the IVIS for ICG.

T4 sequence (P08519 20-2040): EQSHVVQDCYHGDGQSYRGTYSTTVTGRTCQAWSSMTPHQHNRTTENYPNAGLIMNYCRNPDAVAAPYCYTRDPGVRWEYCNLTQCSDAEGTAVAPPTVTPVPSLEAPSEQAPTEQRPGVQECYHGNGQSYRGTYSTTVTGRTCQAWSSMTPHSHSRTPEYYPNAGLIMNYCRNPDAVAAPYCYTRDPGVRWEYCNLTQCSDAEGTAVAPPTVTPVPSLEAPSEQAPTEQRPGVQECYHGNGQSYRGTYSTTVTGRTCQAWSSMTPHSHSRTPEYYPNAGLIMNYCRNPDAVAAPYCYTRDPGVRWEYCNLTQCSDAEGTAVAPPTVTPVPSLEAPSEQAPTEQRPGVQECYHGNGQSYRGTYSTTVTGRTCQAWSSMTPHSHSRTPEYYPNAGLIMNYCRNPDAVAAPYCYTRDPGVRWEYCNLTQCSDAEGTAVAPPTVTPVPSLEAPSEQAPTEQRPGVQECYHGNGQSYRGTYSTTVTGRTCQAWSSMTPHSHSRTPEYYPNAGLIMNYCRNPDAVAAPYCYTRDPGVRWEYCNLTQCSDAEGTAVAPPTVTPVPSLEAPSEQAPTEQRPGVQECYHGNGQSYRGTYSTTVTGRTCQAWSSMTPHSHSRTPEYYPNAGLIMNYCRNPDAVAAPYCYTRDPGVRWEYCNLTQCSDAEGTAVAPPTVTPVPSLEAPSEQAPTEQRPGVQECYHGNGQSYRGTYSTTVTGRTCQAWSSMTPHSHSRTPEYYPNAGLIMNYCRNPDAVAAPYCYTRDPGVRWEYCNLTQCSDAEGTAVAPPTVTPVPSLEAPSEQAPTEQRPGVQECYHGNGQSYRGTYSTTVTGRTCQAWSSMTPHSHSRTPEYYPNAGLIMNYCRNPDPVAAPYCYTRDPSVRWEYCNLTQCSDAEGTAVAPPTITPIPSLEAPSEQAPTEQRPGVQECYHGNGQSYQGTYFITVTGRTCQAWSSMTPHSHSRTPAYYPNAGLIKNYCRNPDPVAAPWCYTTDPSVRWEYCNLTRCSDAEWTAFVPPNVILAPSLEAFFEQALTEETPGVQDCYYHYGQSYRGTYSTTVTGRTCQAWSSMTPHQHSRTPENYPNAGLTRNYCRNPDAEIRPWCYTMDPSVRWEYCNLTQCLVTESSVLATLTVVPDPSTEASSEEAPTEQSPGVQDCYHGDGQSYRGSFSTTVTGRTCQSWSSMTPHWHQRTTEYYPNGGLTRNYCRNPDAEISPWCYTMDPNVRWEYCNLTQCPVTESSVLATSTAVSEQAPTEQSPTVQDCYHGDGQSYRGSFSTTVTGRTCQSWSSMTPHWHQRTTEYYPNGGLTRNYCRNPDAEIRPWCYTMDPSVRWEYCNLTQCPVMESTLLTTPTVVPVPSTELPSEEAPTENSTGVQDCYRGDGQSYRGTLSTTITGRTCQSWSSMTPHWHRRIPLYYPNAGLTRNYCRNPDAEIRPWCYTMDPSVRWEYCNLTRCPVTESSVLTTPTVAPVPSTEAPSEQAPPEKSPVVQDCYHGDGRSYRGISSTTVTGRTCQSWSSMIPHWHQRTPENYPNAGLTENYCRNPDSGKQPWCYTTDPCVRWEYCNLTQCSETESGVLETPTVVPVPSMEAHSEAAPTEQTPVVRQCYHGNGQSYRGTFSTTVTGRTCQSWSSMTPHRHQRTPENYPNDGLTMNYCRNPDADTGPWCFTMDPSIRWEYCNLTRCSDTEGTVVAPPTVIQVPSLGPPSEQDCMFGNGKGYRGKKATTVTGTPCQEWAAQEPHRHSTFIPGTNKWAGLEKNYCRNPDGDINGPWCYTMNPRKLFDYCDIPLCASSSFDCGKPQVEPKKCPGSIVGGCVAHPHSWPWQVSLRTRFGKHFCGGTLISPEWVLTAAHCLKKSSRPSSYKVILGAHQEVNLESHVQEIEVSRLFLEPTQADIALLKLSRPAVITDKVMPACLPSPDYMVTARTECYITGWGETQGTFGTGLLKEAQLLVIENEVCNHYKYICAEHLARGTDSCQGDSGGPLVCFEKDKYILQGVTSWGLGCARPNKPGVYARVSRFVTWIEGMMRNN
T2 sequence (P02647 19-267): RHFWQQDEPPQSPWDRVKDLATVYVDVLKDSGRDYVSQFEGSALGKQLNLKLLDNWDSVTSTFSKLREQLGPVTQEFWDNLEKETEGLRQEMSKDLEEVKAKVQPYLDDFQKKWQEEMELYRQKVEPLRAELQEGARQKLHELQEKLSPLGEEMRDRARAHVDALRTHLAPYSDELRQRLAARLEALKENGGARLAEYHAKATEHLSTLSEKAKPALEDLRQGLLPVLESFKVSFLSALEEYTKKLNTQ

CCCCCCCCCCCCCCCC(=O)NCC(=O)NCC(=O)NCC(=O)N[C@@H](Cc1c[nH]cn1)C(=O)N[C@@H](C)C(=O)N[C@@H](C)C(=O)N[C@@H](CC(N)=O)C(=O)NCC(=O)N[C@@H](CCC(=O)O)C(=O)N[C@@H](CCC(=O)O)C(=O)N[C@@H](CS)C(=O)N[C@@H](CCC(=O)O)C(=O)O [SA‐E] (Palmitoyl-GGGHAANGEECE-OH)
Percentage, Apolipoprotein L1 (human plasma proteins [1]; replicate 1): 0.2%
Total Counts, Apolipoprotein L1 (human plasma proteins [1]; replicate 1): 7
Percentage, Apolipoprotein L1 (human plasma proteins [1]; replicate 2): 0.2%
Total Counts, Apolipoprotein L1 (human plasma proteins [1]; replicate 2): 7
Percentage, Apolipoprotein A-I (human plasma proteins [2]; replicate 1): 15.7%
Total Counts, Apolipoprotein A-I (human plasma proteins [2]; replicate 1): 560
Percentage, Apolipoprotein A-I (human plasma proteins [2]; replicate 2): 21.1%
Total Counts, Apolipoprotein A-I (human plasma proteins [2]; replicate 2): 600
Percentage, Apolipoprotein C-I (human plasma proteins [3]; replicate 1): 0.2%
Total Counts, Apolipoprotein C-I (human plasma proteins [3]; replicate 1): 6
Percentage, Apolipoprotein C-I (human plasma proteins [3]; replicate 2): 0.3%
Total Counts, Apolipoprotein C-I (human plasma proteins [3]; replicate 2): 9
Percentage, Apolipoprotein(a) (human plasma proteins [4]; replicate 1): 0.1%
Total Counts, Apolipoprotein(a) (human plasma proteins [4]; replicate 1): 4
Percentage, Apolipoprotein(a) (human plasma proteins [4]; replicate 2): 0.1%
Total Counts, Apolipoprotein(a) (human plasma proteins [4]; replicate 2): 3
tumor accumulation, SR‐B1 knockout versus wild type tumors (TRAMP‐C2 tumors): not needed for tumor accumulation
